Series [1] deals with B. catarrhalis W-0500. Kind of series: Antibiotic activities (MIC), agar dilution. It is filed as cell-based. The note with it: Moraxella catarrhalis, W0500, Sensitivity Disk agar-N+5% Horse blood, inoculant 10^6 CFU/ml, read-out: minimum inhibiting concentration (MIC). The method, then: (§1) The minimum inhibiting concentrations (MIC, μg/ml) of representative compounds among the novel carbapenem derivatives according to the present invention to various pathogenic bacteria were measured in accordance with the method described in CHEMOTHERAPY, vol. 16, No. 1, 99, 1968. The culture medium for measurement was Sensitivity Disk agar-N+5% Horse blood, and the amount of inoculants was 10^6 CFU/ml.
Background: In agar dilution, organisms are placed on agar that contains the substance at set levels.

The test system of series [2] is E. coli NIHJ JC-2. Kind of series: Antibiotic activities (MIC), agar dilution. The class given is cell-based. The conditions noted are these: Escherichia coli, NIHJJC2, Sensitivity Disk agar-N+5% Horse blood, inoculant 10^6 CFU/ml, read-out: minimum inhibiting concentration (MIC). The method, then: as §1
The subject of series [3] is H. influenzae PRC44. Kind of series: Antibiotic activities (MIC), agar dilution. The class given is cell-based. The note with it: Haemophilus influenzae, Sensitivity Disk agar-N+5% Horse blood, inoculant 10^6 CFU/ml, read-out: minimum inhibiting concentration (MIC). The method, then: as §1
Series [4] has as its system K. pneumoniae PCI602. Kind of series: Antibiotic activities (MIC), agar dilution. The conditions noted are these: Klebsiella pneumoniae, Sensitivity Disk agar-N+5% Horse blood, inoculant 10^6 CFU/ml, read-out: minimum inhibiting concentration (MIC). It is filed as cell-based. The method, then: as §1
Series [5] has as its system S. aureus 209P JC-1. Kind of series: Antibiotic activities (MIC), agar dilution. The class given is cell-based. The conditions noted are these: Staphylococcus aureus, Sensitivity Disk agar-N+5% Horse blood, inoculant 10^6 CFU/ml, read-out: minimum inhibiting concentration (MIC). As for the experimental part: as §1
For series [6], the system named is S. aureus M126 (methicillin-hyperresistant strain). Kind of series: Antibiotic activities (MIC), agar dilution. It is filed as cell-based. The note with it: Staphylococcus aureus, Sensitivity Disk agar-N+5% Horse blood, inoculant 10^6 CFU/ml, read-out: minimum inhibiting concentration (MIC). As for the experimental part: as §1
For series [7], the system named is S. aureus M126 HR (methicillin-hyperresistant strain). Kind of series: Antibiotic activities (MIC), agar dilution. The class given is cell-based. The note with it: Staphylococcus aureus, Sensitivity Disk agar-N+5% Horse blood, inoculant 10^6 CFU/ml, read-out: minimum inhibiting concentration (MIC). The method, then: as §1
In series [8] the test system is S. pneumoniae PRC9 (penicillin-hyperresistant strain). Kind of series: Antibiotic activities (MIC), agar dilution. The class given is cell-based. The note with it: Streptococcus pneumoniae, Sensitivity Disk agar-N+5% Horse blood, inoculant 10^6 CFU/ml, read-out: minimum inhibiting concentration (MIC). As for the experimental part: as §1
Series [9] deals with Staphylococcus aureus MF126 (MRSA). Kind of series: Therapeutic effect on mice subjected to general infection with MRSA. The note with it: cyclophosphamide-treated mice, subcutaneous with cilastatin 2 and 4 hours after infection, survival rate on seventh day. The class given is in vivo. As for the experimental part: The therapeutic effect of representative compounds among the novel carbapenem derivatives according to the present invention on mice subjected to general infection with MRSA were assayed by the following method, and the results are shown in Table 2. Specifically, cyclophosphamide (200 mg/kg) was administered intraperitoneally to mice (n=8), and, four days after the administration of cyclophosphamide, Staphylococcus aureus MF126 (MRSA) was inoculated intraperitoneally to infect the mice with MRSA. Cilastatin (1 mg/mouse) and the carbapenem compound in an indicated amount were subcutaneously administered two hours and four hours after the infection. ED50 was calculated based on the survival rate on the seventh day after the infection.

The format of series [10] is in vivo. The note with it: intravenously, 1,000 mg/kg, ICR male mice, three mice per group. As for the experimental part: The compound of Example 1 was administered intravenously to mice (ICR, male, each group consisting of three mice) in an amount of 2,000 mg/kg.
The compound of Example 2 was administered intravenously to mice (ICR, male, each group consisting of three mice) in an amount of 1,000 mg/kg.

The mark [11] stands for this setting: Amount of inoculant: 2.8 × 10^6 CFU/mouse.
Setting [12] is: Amount of inoculant: 5.9 × 10^6 CFU/mouse.

Each structure is given as a SMILES string. Converted amounts (≈) assume the structure as drawn.

With `CC(=O)c1ncn2cc(C3=C(C(=O)[O-])N4C(=O)[C@H]([C@@H](C)O)[C@H]4[C@H]3C)sc12.[Na+]` [Compound A, Sodium (1S,5R,6S)-2-(7-acetylimidazo[5,1-b]thiazol-2-yl)-6-((1R)-1-hydroxyethyl)-1-methyl-1-carbapen-2-em-3-carboxylate, reference compound], the MIC was 0.031 mg/L in series [1]; 0.125 mg/L in series [2]; 0.031 mg/L in [3]; 0.25 mg/L in [4]; 0.016 mg/L in series [5]; 1 mg/L in [6]. Besides, the MIC stood at 8 mg/L in [7] and 0.063 mg/L in series [8].
As for `C[C@@H](O)[C@H]1C(=O)N2C(C(=O)[O-])=C(c3cn4cnc(C(=O)c5ccccc5)c4s3)[C@H](C)[C@H]12.[Na+]` [Compound B, Sodium (1S,5R,6S)-2-(7-benzoylimidazo[5,1-b]thiazol-2-yl)-6-((1R)-1-hydroxyethyl)-1-methyl-1-carbapen-2-em-3-carboxylate, reference compound], the MIC is < 0.025 mg/L in [1]; 3.13 mg/L in [2]; 0.1 mg/L in [3]; 3.13 mg/L in [4]; < 0.006 mg/L in series [5]; 1.56 mg/L in [6]. Moreover, the MIC in [7] is 6.25 mg/L; in series [8], 0.1 mg/L.
`C[C@@H](O)[C@H]1C(=O)N2C(C(=O)O)=C(SCCN=CN)C[C@H]12` [Compound C, Imipenem, reference compound]: the MIC stood at 0.063 mg/L (≈ 0.21 µM) in [1]; 0.125 mg/L (≈ 0.418 µM) in [2]; 8 mg/L (≈ 26.7 µM) in series [3]; 0.25 mg/L (≈ 0.835 µM) in [4]; 0.008 mg/L (≈ 0.0267 µM) in series [5]; 4 mg/L (≈ 13.4 µM) in [6]. Also, the MIC in series [7] is 64 mg/L (≈ 214 µM); in series [8], 0.25 mg/L (≈ 0.835 µM).
For the compound `C[C@@H](O)[C@H]1C(=O)N2C(C(=O)O)=C(c3cn4cnc(C(=O)c5cccnc5)c4s3)[C@H](C)[C@H]12` [Example 1, Sodium (1S,5R,6S)-6-((1R)-1-hydroxyethyl)-1-methyl-2-[7-(pyridin-3-yl)carbonylimidazo[5,1-b]thiazol 2-yl]-1-carbapen-2-em-3-carboxylate], the MIC in [1] was 0.016 mg/L; in [2], 1 mg/L; in series [3], 0.031 mg/L; in [4], 1 mg/L; in series [5], < 0.008 mg/L; in [6] it was 1 mg/L. Moreover, the figures for the MIC in [7] and in series [8] were 4 mg/L and 0.031 mg/L, respectively.
For the compound `C[C@@H](O)[C@H]1C(=O)N2C(C(=O)[O-])=C(c3cn4cnc(C(=O)c5ccc[n+](CC(N)=O)c5)c4s3)[C@H](C)[C@H]12` [Example 2, (1S,5R,6S)-2-[7-(1-Carbamoylmethylpyridinium-3-yl)carbonylimidazo[5,1-b]thiazol-2-yl]-6-((1R)-1-hydroxyethyl)-1-methyl-1-carbapen-2-em-3-carboxylate], the MIC in series [1] is 0.016 mg/L (≈ 0.0323 µM); in [2], 0.031 mg/L (≈ 0.0626 µM); in series [3], 0.031 mg/L (≈ 0.0626 µM); in series [4], 0.063 mg/L (≈ 0.127 µM); in series [5], < 0.008 mg/L; in series [6], 0.5 mg/L (≈ 1.01 µM). For the same compound, the MIC was found to be 2 mg/L (≈ 4.04 µM) in series [7] and 0.031 mg/L (≈ 0.0626 µM) in [8]. This compound showed an ED50 in [9] (setting [11]) of 0.07 mg/mouse. In series [10], the “survival in acute toxicity test” value is recorded as “all of the mice survived”.
In the case of `C[C@@H](O)[C@H]1C(=O)N2C(C(=O)O)=C(c3cn4cnc(C(=O)[C@@H]5CCCN5)c4s3)[C@H](C)[C@H]12` [Example 11, Sodium (1S,5R,6S)-6-((1R)-1-hydroxyethyl)-1-methyl-2-[7-((2S)-pyrrolidin-2-yl)carbonylimidazo[5,1-b]thiazol-2-yl]-1-carbapen-2-em-3-carboxylate], the ED50 in [9] (setting [11]) is reported as 0.25 mg/mouse.
In [9] (Amount of inoculant: 2.5 × 10^6 CFU/mouse), `C[C@@H](O)[C@H]1C(=O)N2C(C(=O)[O-])=C(c3cn4cnc(C(=O)c5cc(SCCN)c[n+](CC(=O)O)c5)c4s3)[C@H](C)[C@H]12` [Example 37, (1S,5R,6S)-2-[7-[5-(2-Aminoethyl)thio-1-carboxylmethylpyridinium-3-yl]carbonylimidazo[5,1-b]-thiazol-2-yl]-6-((1R)-1-hydroxyethyl)-1-methyl-1-carbapen-2-em-3-carboxylate] had an ED50 of 0.139 mg/mouse.
As to `C[C@@H](O)[C@H]1C(=O)N2C(C(=O)[O-])=C(c3cn4cnc(C(=O)c5ccc[n+](CC(N)=O)c5)c4s3)C[C@H]12` [Example 39, (5R,6S)-2-[7-(1-Carbamoylmethylpyridinium-3-yl)carbonylimidazo[5,1-b]thiazol-2-yl]-6-((1R)-1-hydroxyethyl)-1-carbapen-2-em-3-carboxylate], the MIC in series [1] worked out at 0.031 mg/L (≈ 0.0644 µM); in series [2], 0.031 mg/L (≈ 0.0644 µM); in series [3], 0.063 mg/L (≈ 0.131 µM); in series [4], 0.031 mg/L (≈ 0.0644 µM); in series [5] it was 0.008 mg/L (≈ 0.0166 µM); in series [6], 0.25 mg/L (≈ 0.519 µM). Moreover, the MIC in series [7] stood at 1 mg/L (≈ 2.08 µM); in series [8] it was 0.031 mg/L (≈ 0.0644 µM). In addition, in series [9] (Amount of inoculant: 2.9 × 10^6 CFU/mouse), the ED50 stood at 0.02 mg/mouse.
With `C[C@@H](O)[C@H]1C(=O)N2C(C(=O)[O-])=C(c3cn4cnc(C(=O)c5ccc[n+](CCNS(N)(=O)=O)c5)c4s3)[C@H](C)[C@H]12` [Example 65, (1S,5R,6S)-6-((1R)-1-Hydroxyethyl)-1-methyl-2-[7-[1-(2-sulfamoylaminoethyl)pyridinium-3-yl]carbonylimidazo[5,1-b]thiazol-2-yl]-1-carbapen-2-em-3-carboxylate], the ED50 in series [9] (setting [12]) amounted to 0.32 mg/mouse.
In the case of `CN[C@H](CC(C)C)C(=O)N[C@H]1C(=O)N[C@@H](CC(N)=O)C(=O)N[C@H]2C(=O)N[C@H]3C(=O)N[C@H](C(=O)N[C@H](C(=O)O)c4cc(O)cc(O)c4-c4cc3ccc4O)[C@H](O)c3ccc(c(Cl)c3)Oc3cc2cc(c3O[C@@H]2O[C@H](CO)[C@@H](O)[C@H](O)[C@H]2O[C@H]2C[C@](C)(N)[C@H](O)[C@H](C)O2)Oc2ccc(cc2Cl)[C@H]1O` [Vancomycin, reference compound], the ED50 in series [9] (setting [11]) is recorded as 0.50 mg/mouse; in [9] (setting [12]), 0.71 mg/mouse.

The values above are taken from patent publication US6908913B2, “Carbapenem derivatives” (Meiji Seiki Kaisha, Ltd., priority 2000, dated 2005).
